Source: ChEMBL document CHEMBL4052759, “Discovery of DS79182026: A potent orally active hepcidin production inhibitor” (Bioorg Med Chem Lett, 2017)

How the values were obtained:
[1] = molecular target: Ephrin type-B receptor 3 (Homo sapiens) (UniProt P54753); assay: Inhibition of EPHB3 (unknown origin) at 0.49 uM relative to control
[2] = molecular target: Tyrosine-protein kinase ITK/TSK (Homo sapiens) (UniProt Q08881); assay: Inhibition of ITK (unknown origin) at 0.49 uM relative to control
[3] = molecular target: Mitogen-activated protein kinase 1 (Homo sapiens) (UniProt P28482); assay: Inhibition of Erk2 (unknown origin) at 0.49 uM relative to control
Mitogen-activated protein kinase 1 (Homo sapiens), sequence (P28482 whole entry): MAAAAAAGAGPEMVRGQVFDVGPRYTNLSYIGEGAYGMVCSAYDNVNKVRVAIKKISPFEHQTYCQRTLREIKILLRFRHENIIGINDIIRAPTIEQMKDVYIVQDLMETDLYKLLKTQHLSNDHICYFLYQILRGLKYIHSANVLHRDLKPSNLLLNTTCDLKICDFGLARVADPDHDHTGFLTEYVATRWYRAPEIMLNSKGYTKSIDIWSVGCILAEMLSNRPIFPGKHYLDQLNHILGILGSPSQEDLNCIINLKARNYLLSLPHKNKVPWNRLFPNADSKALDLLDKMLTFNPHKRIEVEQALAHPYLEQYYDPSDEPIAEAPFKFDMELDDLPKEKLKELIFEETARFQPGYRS

[4] = molecular target: Cyclin-dependent kinase 1/cyclin B1 (Homo sapiens) (UniProt P06493+P14635); assay: Inhibition of CDK1/CyclinB (unknown origin) at 0.49 uM relative to control; format: protein-complex assay
[5] = molecular target: Mitogen-activated protein kinase 14 (Homo sapiens) (UniProt Q16539); assay: Inhibition of p38a (unknown origin) at 0.49 uM relative to control
Mitogen-activated protein kinase 14 (Homo sapiens), sequence (Q16539 whole entry): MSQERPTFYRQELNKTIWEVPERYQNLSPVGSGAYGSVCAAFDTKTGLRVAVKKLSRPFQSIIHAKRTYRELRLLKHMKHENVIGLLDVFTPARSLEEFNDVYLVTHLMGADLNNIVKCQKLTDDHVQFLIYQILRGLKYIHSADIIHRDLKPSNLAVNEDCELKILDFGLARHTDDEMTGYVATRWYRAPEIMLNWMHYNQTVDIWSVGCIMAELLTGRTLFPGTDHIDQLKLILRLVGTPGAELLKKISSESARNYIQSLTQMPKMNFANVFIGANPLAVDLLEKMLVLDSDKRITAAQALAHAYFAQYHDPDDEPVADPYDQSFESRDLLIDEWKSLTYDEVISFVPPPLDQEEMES

[6] = molecular target: ALK tyrosine kinase receptor (Homo sapiens) (UniProt Q9UM73); assay: Inhibition of ALK (unknown origin) at 0.49 uM relative to control
ALK tyrosine kinase receptor (Homo sapiens), sequence (Q9UM73 19-1620 limits assumed): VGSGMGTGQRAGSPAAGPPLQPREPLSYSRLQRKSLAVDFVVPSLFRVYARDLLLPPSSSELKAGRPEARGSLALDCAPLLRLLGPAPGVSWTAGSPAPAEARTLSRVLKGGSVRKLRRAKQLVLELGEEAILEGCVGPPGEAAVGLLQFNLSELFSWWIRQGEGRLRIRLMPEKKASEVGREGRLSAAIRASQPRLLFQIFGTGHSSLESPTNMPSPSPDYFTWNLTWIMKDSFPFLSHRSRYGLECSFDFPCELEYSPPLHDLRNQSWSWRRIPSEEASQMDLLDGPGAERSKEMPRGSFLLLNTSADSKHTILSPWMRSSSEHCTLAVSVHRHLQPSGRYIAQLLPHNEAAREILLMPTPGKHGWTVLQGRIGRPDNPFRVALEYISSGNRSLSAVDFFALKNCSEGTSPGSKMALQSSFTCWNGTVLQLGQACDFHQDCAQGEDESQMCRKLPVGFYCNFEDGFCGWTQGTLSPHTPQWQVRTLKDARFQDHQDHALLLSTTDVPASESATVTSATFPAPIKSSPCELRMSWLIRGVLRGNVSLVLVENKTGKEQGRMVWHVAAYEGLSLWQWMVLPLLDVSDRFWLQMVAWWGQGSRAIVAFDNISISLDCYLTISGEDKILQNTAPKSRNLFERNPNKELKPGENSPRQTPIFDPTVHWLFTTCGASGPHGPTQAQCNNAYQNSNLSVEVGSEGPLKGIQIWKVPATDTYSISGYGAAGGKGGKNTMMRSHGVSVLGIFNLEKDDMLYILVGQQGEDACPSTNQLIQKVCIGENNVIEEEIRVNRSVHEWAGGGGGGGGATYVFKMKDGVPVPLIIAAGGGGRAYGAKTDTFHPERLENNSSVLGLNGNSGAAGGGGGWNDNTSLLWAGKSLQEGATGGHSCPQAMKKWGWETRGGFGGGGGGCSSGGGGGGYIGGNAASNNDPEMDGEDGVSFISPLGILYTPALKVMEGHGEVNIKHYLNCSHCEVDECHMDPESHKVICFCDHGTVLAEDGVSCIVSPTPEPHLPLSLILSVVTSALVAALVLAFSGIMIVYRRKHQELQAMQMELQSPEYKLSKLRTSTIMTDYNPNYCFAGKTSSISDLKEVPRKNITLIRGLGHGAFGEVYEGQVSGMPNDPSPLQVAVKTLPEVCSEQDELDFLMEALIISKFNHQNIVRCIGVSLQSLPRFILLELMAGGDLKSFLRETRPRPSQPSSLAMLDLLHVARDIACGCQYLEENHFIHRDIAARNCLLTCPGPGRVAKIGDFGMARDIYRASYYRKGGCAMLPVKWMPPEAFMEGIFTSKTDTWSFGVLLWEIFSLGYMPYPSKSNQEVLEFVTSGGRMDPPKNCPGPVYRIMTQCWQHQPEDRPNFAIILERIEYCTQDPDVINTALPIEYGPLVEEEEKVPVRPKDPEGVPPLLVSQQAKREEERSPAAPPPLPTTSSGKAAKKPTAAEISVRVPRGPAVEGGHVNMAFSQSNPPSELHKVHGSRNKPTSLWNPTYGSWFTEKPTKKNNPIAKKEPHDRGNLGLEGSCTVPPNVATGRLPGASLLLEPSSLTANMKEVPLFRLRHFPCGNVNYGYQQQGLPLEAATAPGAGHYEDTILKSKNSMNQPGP

[7] = molecular target: Tyrosine-protein kinase HCK (Homo sapiens) (UniProt P08631); assay: Inhibition of Hck (unknown origin) at 0.45 uM relative to control
Tyrosine-protein kinase HCK (Homo sapiens), sequence (P08631 2-526 limits assumed): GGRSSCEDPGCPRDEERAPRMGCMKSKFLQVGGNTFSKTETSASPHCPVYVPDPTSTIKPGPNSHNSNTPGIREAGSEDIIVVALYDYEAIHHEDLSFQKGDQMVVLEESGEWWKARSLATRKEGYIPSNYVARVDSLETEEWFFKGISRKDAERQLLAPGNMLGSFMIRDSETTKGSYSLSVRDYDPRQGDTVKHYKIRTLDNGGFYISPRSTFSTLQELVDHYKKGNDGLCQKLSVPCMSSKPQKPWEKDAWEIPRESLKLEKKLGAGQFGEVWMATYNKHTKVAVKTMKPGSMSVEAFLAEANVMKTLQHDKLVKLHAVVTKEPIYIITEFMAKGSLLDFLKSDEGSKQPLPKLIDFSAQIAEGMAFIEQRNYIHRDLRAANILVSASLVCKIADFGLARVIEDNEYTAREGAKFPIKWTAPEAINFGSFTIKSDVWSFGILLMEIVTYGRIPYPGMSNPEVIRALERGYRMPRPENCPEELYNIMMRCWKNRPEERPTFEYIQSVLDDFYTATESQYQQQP

[8] = molecular target: Serine/threonine-protein kinase MARK1 (Homo sapiens) (UniProt Q9P0L2); assay: Inhibition of MARK1 (unknown origin) at 0.45 uM relative to control
[9] = molecular target: cAMP-dependent protein kinase catalytic subunit PRKX (Homo sapiens) (UniProt P51817); assay: Inhibition of PRKX (unknown origin) at 0.45 uM relative to control
cAMP-dependent protein kinase catalytic subunit PRKX (Homo sapiens), sequence (P51817 whole entry): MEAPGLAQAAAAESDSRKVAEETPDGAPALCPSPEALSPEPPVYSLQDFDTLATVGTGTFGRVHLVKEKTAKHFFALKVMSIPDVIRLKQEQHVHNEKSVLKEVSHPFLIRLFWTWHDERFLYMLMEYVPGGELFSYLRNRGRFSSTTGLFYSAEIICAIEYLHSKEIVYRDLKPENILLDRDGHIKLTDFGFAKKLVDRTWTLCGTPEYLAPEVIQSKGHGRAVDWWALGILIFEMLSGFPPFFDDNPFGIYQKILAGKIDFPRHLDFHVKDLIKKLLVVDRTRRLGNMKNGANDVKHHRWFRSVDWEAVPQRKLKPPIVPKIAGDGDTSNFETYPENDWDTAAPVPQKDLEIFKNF

[10] = molecular target: RAC-gamma serine/threonine-protein kinase (Homo sapiens) (UniProt Q9Y243); assay: Inhibition of AKT3 (unknown origin) at 0.45 uM relative to control
RAC-gamma serine/threonine-protein kinase (Homo sapiens), sequence (Q9Y243 whole entry): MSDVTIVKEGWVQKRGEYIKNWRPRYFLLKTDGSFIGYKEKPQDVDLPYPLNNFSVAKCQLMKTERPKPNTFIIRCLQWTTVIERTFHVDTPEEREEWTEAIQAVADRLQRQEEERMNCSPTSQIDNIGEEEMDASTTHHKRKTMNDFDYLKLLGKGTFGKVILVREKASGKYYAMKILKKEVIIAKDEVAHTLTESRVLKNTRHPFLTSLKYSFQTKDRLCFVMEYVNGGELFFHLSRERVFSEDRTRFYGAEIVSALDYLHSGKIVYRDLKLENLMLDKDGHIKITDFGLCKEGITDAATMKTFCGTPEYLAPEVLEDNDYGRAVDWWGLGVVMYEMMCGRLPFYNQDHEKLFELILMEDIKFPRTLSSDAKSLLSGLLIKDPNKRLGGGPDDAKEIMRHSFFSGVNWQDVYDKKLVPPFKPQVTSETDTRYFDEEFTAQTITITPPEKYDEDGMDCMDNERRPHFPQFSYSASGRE

Ephrin type-B receptor 3 (Homo sapiens), sequence (P54753 whole entry): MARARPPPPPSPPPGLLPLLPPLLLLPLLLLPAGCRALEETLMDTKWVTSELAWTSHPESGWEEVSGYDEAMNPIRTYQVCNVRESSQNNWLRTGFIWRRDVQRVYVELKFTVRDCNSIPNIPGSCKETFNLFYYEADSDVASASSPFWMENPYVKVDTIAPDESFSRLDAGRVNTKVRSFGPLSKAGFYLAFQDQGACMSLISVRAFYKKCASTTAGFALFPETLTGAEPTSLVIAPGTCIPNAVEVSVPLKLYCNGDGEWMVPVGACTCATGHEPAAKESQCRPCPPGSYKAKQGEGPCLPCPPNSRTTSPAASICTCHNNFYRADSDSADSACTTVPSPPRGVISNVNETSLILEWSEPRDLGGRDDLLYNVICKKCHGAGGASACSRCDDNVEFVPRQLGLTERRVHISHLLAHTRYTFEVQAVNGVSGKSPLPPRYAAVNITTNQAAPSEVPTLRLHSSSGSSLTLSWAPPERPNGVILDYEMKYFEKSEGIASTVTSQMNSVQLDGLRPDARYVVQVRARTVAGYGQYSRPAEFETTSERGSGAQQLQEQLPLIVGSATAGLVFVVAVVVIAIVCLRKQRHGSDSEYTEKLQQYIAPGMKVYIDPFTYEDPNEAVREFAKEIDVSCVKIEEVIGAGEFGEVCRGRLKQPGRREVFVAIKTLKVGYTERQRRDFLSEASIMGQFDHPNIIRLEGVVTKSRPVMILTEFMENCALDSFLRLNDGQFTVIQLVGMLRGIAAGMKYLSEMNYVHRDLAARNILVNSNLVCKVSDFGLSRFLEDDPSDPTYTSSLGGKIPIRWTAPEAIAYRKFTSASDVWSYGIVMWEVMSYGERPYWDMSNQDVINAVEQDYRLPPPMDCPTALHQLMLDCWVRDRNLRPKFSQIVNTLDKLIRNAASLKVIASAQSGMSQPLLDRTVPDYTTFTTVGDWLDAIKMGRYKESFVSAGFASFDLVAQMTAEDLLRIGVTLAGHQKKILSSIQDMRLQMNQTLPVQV

SMILES | inhibition [1] | inhibition [2] | inhibition [3] | inhibition [4] | inhibition [5] | inhibition [6] | inhibition [7] | inhibition [8] | inhibition [9] | inhibition [10]
Cc1[nH]nc(C2CC2)c1-c1ccc2c(NC(=O)C3CC3)noc2c1 | 0.7% | -1% | -0.3% | 5.3% | -1.7% | 0.3% |  |  |  | 
Cc1n[nH]c(C)c1-c1ccc2c(NC(=O)c3ccc(N4CCN(C)CC4)cc3)n[nH]c2c1 |  |  |  |  |  |  | 30.3% | 36.7% | 0.3% | 1.3%
